Data taken from patent US20090227619A1, “Harmine derivatives, intermediates used in their preparations, preparation processes and use therefo” (priority 2003, published 2009).
Read-outs that look alike come from different tables or passages of the source.

What was measured:
HepG2 = test: In vitro cytotoxicity, IC50 by MTT method, HepG2; format: cell-based, human
Outline: (§1)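 MTT viability, 48 h exposure: cells 10^5/ml in RPMI1640 + 10% FBS, 37 °C/5% CO2; MTT 4 h, DMSO solubilisation, A490.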

PLA-801 = test: In vitro cytotoxicity, IC50 by MTT method, PLA-801; format: cell-based
Outline: as §1

Bel-7402 = test: In vitro cytotoxicity, IC50 by MTT method, Bel-7402; format: cell-based
Outline: as §1

BGC-823 = test: In vitro cytotoxicity, IC50 by MTT method, BGC-823; format: cell-based
Outline: as §1

Hela = test: In vitro cytotoxicity, IC50 by MTT method, Hela; format: cell-based
Outline: as §1

Lovo = test: In vitro cytotoxicity, IC50 by MTT method, Lovo; format: cell-based
Outline: as §1

NIH3T3 = test: In vitro cytotoxicity, IC50 by MTT method, NIH3T3; format: cell-based
Outline: as §1

CT-DNA [1] = test: DNA thermal denaturation, determination of ΔTm; format: binding; conditions: 20 uM compound, Tm of CT-DNA alone 61° C.
Outline: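 CT-DNA at 15 ug/ml in PE buffer (1 mM Na2HPO4, 0.1 mM EDTA, pH 7.6), heated at 0.5° C./min from 25 to 95° C. Tm taken as hyperchromic transition mid-point; ΔTm = Tm of drug-DNA complex minus Tm of DNA alone, mean of three runs.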

CT-DNA [2] = test: UV absorption spectrum method with CT-DNA; format: binding; conditions: CT-DNA 40 ug/ml, compound 20 uM, 37° C. for 2 h, OD at 260 nm
Kunming mice = conditions: summary Table 34, compounds marked *, results [153] of the previous tests; in mg/kg; cited from earlier work
HepG2 cells = test: FCM analysis of apoptosis of HepG2 cells; format: cell-based, human; conditions: FIG. 6
[3] = Homo sapiens, HepG2, MTT, read-out: IC50
[4] = Homo sapiens, Bel-7402, BeI7402, MTT, read-out: IC50
[5] = Homo sapiens, BGC-823, BGC823, MTT, read-out: IC50
[6] = Homo sapiens, Hela, MTT, read-out: IC50
[7] = Homo sapiens, Lovo, MTT, read-out: IC50
[8] = Mus musculus, NIH3T3, MTT, read-out: IC50
[9] = comparison table 43, in vivo, Lewis lung cancer
[10] = comparison table 43, in vivo, S180 sarcoma
[11] = Homo sapiens, HepG2 cell strain, read-out: IC50 HepG2
[12] = PLA-801 cell strain, read-out: IC50 PLA-801
[13] = Homo sapiens, Bel-7402, Bel7402 cell strain, read-out: IC50 Bel7402
[14] = Homo sapiens, BGC-823, BGC823 cell strain, read-out: IC50 BGC823
[15] = Homo sapiens, Hela cell strain, read-out: IC50 Hela
[16] = Homo sapiens, Lovo cell strain, read-out: IC50 Lovo
[17] = Mus musculus, NIH3T3 cell strain, read-out: IC50 NIH3T3
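For Anti-tumor activity compared with harmine (compound 1) in this document: mice implanted subcutaneously in the axilla with Lewis lung tumor cells, treated starting the following day, killed roughly three weeks after implantation.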
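For Inhibition rate (%) Lewis cancer in this document: mice implanted subcutaneously in the axilla with Lewis lung tumor cells, treated starting the following day, killed roughly three weeks after implantation.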

Excerpt for Lewis lung cancer: There was one group of 8 to 10 mice C57BL/6 and Kunming mice for the anti-tumor tests and two groups of mice for negative control.
(3) Sources of tumors: Lewis lung cancer cells and S180 sarcoma in mice, which were sub-cultured and maintained by Pharmacological Center of Shanghai Pharmaceutical Industrial Research Institute.
All samples were weighed and added a small amount of Tween-80 to facilitate dissolution during the experiment, and then 0.5% CMC-Na solution was gradually added to achieve the desired concentration. The volume for experiment was 0.5 ml/20 g mouse.
The medicaments were intraperitoneally administered once a day continuously for 10 days.
For the negative control group, a vehicle of the same volume was intraperitoneally administered once a day continuously for 10 days. For the positive control group, CTX was administered in the dosage of 30 mg/kg once a day continuously for 7 days.
In vivo anti-tumor subcutaneous vaccination in the axilla was employed. Wildly grown tumor source was taken under sterile conditions to form a cell suspension of about 1×10^7 ml by homogenization method. For a corresponding mouse host, the suspension was injected in the axilla in an amount of 0.2 ml/mouse. The next day, the medicaments were administered according to the design of the tests. About three weeks later, all the groups of animals were executed. The tumors were taken from the animals and weighed. The inhibition rate of tumors was calculated according to the following formula:
T: average tumor weight of treated group; C: average tumor weight of negative control group.

SMILES: CCCCn1c2cc(OC)ccc2c2ccnc(C)c21 [Compound 4, 7-methoxyl-9-n-butyl-1-methyl-β-carboline]
- IC50 (HepG2; [3]): 60 µM
- IC50 (PLA-801; PLA-801, MTT, read-out: IC50): 110 µM
- IC50 (Bel-7402; [4]): 60 µM
- IC50 (BGC-823; [5]): 70 µM
- IC50 (Hela; [6]): 30 µM
- IC50 (Lovo; [7]): 90 µM
- IC50 (NIH3T3; [8]): 40 µM
- ΔTm (CT-DNA [1]; CT-DNA thermal denaturation): 6.7 °C
- Influence on the UV absorption of DNA (CT-DNA [2]): reduce the UV absorption of DNA
- Inhibition rate (%) Lewis cancer (Lewis lung cancer; [9]): 44.0%
- Inhibition rate (%) S180 sarcomata (S180 sarcoma; [10]): 40.9%
- LD50 (Kunming mice): 26.45

SMILES: COc1ccc2c3ccnc(C)c3n(C)c2c1 [Compound 2, 7-methoxyl-1,9-dimethyl-β-carboline]
- IC50 (HepG2; [3]): 20 µM
- IC50 (PLA-801; PLA-801, MTT, read-out: IC50): 30 µM
- IC50 (Bel-7402; [4]): 60 µM
- IC50 (BGC-823; [5]): 50 µM
- IC50 (Hela; [6]): 10 µM
- IC50 (Lovo; [7]): 40 µM
- IC50 (NIH3T3; [8]): 40 µM
- ΔTm (CT-DNA [1]; CT-DNA thermal denaturation): 5.3 °C
- Inhibition rate (%) Lewis cancer (Lewis lung cancer; [9]): 38.1%
- Inhibition rate (%) S180 sarcomata (S180 sarcoma; [10]): 32.1%
- LD50 (Kunming mice): 28.92

SMILES: COc1ccc2c3ccnc(C)c3n(Cc3ccccc3)c2c1 [Compound 6, 9-benzyl-7-methoxy-1-methyl-β-carboline]
- IC50 (HepG2; [3]): 90 µM
- IC50 (PLA-801; PLA-801, MTT, read-out: IC50): 60 µM
- IC50 (Bel-7402; [4]): 60 µM
- IC50 (BGC-823; [5]): 100 µM
- IC50 (Hela; [6]): 270 µM
- IC50 (Lovo; [7]): 50 µM
- IC50 (NIH3T3; [8]): 50 µM
- ΔTm (CT-DNA [1]; CT-DNA 15 ug/ml, PE buffer pH 7.6): 10.3 °C
- ΔTm (CT-DNA [1]; CT-DNA thermal denaturation): 10.3 °C
- Influence on the UV absorption of DNA (CT-DNA [2]): reduce the UV absorption of DNA
- Inhibition rate (%) Lewis cancer (Lewis lung cancer; [9]): 46.9%
- Inhibition rate (%) S180 sarcomata (S180 sarcoma; [10]): 45.2%
- LD50 (Kunming mice): 147.82

SMILES: CCn1c2ccccc2c2cc(C(=O)OC)ncc21 [Compound 27, methyl 9-ethyl-β-carboline-3-carboxylate]
- IC50 (HepG2; [11]): 160 µM
- IC50 (PLA-801; [12]): 290 µM
- IC50 (Bel-7402; [13]): 530 µM
- IC50 (BGC-823; [14]): 250 µM
- IC50 (Hela; [15]): 210 µM
- IC50 (Lovo; [16]): 110 µM
- IC50 (NIH3T3; [17]): 130 µM
- Anti-tumor activity compared with harmine (compound 1) (Lewis lung cancer; Lewis lung cancer in mice, among 22 compounds tested): a little worse than or equivalent to that of harmines
- Inhibition rate (%) Lewis cancer (Lewis lung cancer; [9]): 30.5%
- Inhibition rate (%) S180 sarcomata (S180 sarcoma; [10]): 29.0%
- LD50 (Kunming mice): 95.06

SMILES: COC(=O)c1cc2c3ccccc3n(C)c2cn1 [Compound 26, methyl 9-methyl-β-carboline-3-carboxylate]
- IC50 (HepG2; [11]): 120 µM
- IC50 (PLA-801; [12]): 120 µM
- IC50 (Bel-7402; [13]): 190 µM
- IC50 (BGC-823; [14]): 180 µM
- IC50 (Hela; [15]): 180 µM
- IC50 (Lovo; [16]): 180 µM
- IC50 (NIH3T3; [17]): 90 µM
- Inhibition rate (%) Lewis cancer (Lewis lung cancer; [9]): 35.0%
- Inhibition rate (%) S180 sarcomata (S180 sarcoma; [10]): 31.1%
- LD50 (Kunming mice): 70.61

SMILES: CCn1c2cc(OC)ccc2c2ccnc(C)c21 [Compound 3, 7-methoxyl-9-ethyl-1-methyl-β-carboline]
- IC50 (HepG2; Homo sapiens, HepG2): 10 µM
- IC50 (PLA-801): 20 µM
- IC50 (Bel-7402; Homo sapiens, Bel-7402): 30 µM
- IC50 (BGC-823; Homo sapiens, BGC-823): 50 µM
- IC50 (Hela; Homo sapiens, HeLa): 20 µM
- IC50 (Lovo; Homo sapiens, LoVo): 170 µM
- IC50 (NIH3T3; Mus musculus, NIH3T3): 70 µM
- ΔTm (CT-DNA [1]; CT-DNA thermal denaturation): 7.3 °C
- Influence on the UV absorption of DNA (CT-DNA [2]): reduce the UV absorption of DNA
- Inhibition rate (%) Lewis cancer (Lewis lung cancer; mouse, in vivo): 42.0%
- Inhibition rate (%) S180 sarcomata (S180 sarcoma; mouse, in vivo): 37.6%
- LD50 (Kunming mice): 24.25

SMILES: CCOC(=O)c1cc2c3ccccc3n(Cc3c(F)c(F)c(F)c(F)c3F)c2c(C)n1 [Compound 60, ethyl 9-(2′,3′,4′,5′,6′-pentafluoro)benzyl-1-methyl-β-carboline-3-carboxylate]
- IC50 (HepG2; HepG2 cell strain, read-out: IC50 HepG2): 30 µM
- IC50 (PLA-801; [12]): 50 µM
- IC50 (Bel-7402; Bel7402 cell strain, read-out: IC50 Bel7402): 100 µM
- IC50 (BGC-823; BGC823 cell strain, read-out: IC50 BGC823): 4 µM
- IC50 (Hela; Hela cell strain, read-out: IC50 Hela): 20 µM
- IC50 (Lovo; Lovo cell strain, read-out: IC50 Lovo): 40 µM
- IC50 (NIH3T3; NIH3T3 cell strain, read-out: IC50 NIH3T3): 40 µM
- Apoptosis of HepG2 cells (FCM analysis) (HepG2 cells): apoptosis of HepG2 cells induced
